Results as given in paper PMC12774368, “Cyclic-di-GMP controls Type III effector export and symptom development in Pseudomonas syringae infections via the export ATPase HrcN” (PLOS Pathogens, 2025).

Molecular target: T1, HrcN (Δ1-18 WT HrcN) (Pseudomonas syringae group genomosp. 3, UniProt Q887B5)
T1 construct: gene sctN; N-terminal residues 1-18 removed, His6-tagged (tag not reported cut), pETM11, expressed in E. coli BL21(DE3) pLysS, HisTrap purified
Assay type: binding
Settings: 1 mM unlabelled competitor, 1.25 µM HrcN, 0.6 µM 2'-Fluo-AHC-c-diGMP; pH 7.5, 10 mM MgCl2

SMILES: Nc1nc2c(ncn2[C@@H]2O[C@@H]3COP(=O)(O)O[C@H]4[C@@H](O)[C@H](n5cnc6c(=O)[nH]c(N)nc65)O[C@@H]4COP(=O)(O)O[C@H]3[C@H]2O)c(=O)[nH]1 [cyclic-di-GMP]
- competition DRaCALA against fluorescent c-di-GMP: fluorescent cdG binding could be disrupted by the addition of unlabelled cdG
